Test results as given in patent US8486930B2, “Salts” (Novartis AG, priority 2008, dated 2013).
Where a name gives a salt, the structure may show the parent alone.

Key:
Assay type in all cases: physicochemical
[1] = Hygroscopy by exposure to an atmosphere of 95% RH
Protocol: Crystalline forms A of the hydrochloride and tartrate salts of Compound I were prepared according to the methodology described in Examples 1 and 4.
The samples were tested for hygroscopy by exposure to an atmosphere of 95% RH.

[2] = Temperature stability, solid state, 1 week 80° C., tight container; details: for resistance to decomposition at elevated temperatures: summary of Table 5
Protocol: (§1) Crystalline forms A of the hydrochloride and tartrate salts of Compound I were prepared according to the methodology described in Examples 1 and 4. Stability against temperature and light were then measured as described below.
(§2) Temperature stability was tested by measuring decomposition and colour change caused by placing the samples in an airtight container for 1 week at 80° C. (in bulk form and as a 1% component in two mixtures) and in an identical container for 1 week at 80° C. and at a relative humidity of 75%. Where a change in XRPD was observed, the temperature of the phase transition was measured using differential scanning […] (DSC).

[3] = Temperature stability, solid state, 1 week 80° C./75% relative humidity; details: for Decomposition products (%) / Discoloration / Change in XRPD: 1 week 80° C./75% relative humidity; for Change in XRPD: Bulk (XRPD)
Protocol: as §1, §2

[4] = Light stability, Xenon light approx. 1200 kLuxh; details: for Decomposition products (%): Bulk (HPLC); for Change in XRPD: Bulk (XRPD)
Protocol: as §1
Light stability was tested by measuring decomposition and colour change following exposure to the sample to 1200 kiloLuxhours from a Xenon light.

[5] = 1 week 80° C., tight container, 1% in mixture of Lactose 200 mesh (78.5%), corn starch (20%), aerosil 200 (0.5%), magnesium stearate (1%)
[6] = 1 week 80° C., tight container, 1% in mixture of Mannitol 60 (50%), avicel PH 101 (43%), crospovidone (5%), aerosil (1%), magnesium stearate (1%)
[7] = Solid state, 1 week 80° C., tight container, Bulk (HPLC)
[8] = Solid state, 1 week 80° C., tight container, Bulk (XRPD, DSC)
[9] = 1% in mixture of Lactose 200 mesh (78.5%), corn starch (20%), aerosil 200 (0.5%), magnesium stearate (1%)
[10] = 1% in mixture of Mannitol 60 (50%), avicel PH 101 (43%), crospovidone (5%), aerosil (1%), magnesium stearate (1%)

| SMILES | hygroscopy [1] | moisture uptake [1] [%] | Decomposition products (%) [2, 5] [%] | Decomposition products (%) [2, 6] [%] | Decomposition products (%) [2, 7] [%] | Change in XRPD [2, 8] | Decomposition products (%) ([2]; Unstressed (1 week)) | resistance to decomposition at elevated temperatures [2] | Decomposition products (%) [3, 9] [%] | Discoloration [3, 9] | Decomposition products (%) [3, 10] [%] | Discoloration [3, 10] | Discoloration ([3]; Solid state, Bulk) | Decomposition products (%) ([3]; Solid state, Bulk (HPLC)) | Change in XRPD ([3]; Solid state) | Decomposition products (%) [4] [%] | Change in XRPD [4] | other results |
| --- | --- | --- | --- | --- | --- | --- | --- | --- | --- | --- | --- | --- | --- | --- | --- | --- | --- | --- |
| CCc1cc(/C(C)=N/OCc2ccc(C3CCCCC3)c(C(F)(F)F)c2)ccc1CN1CC(C(=O)O)C1 [Form A of hydrochloride salt, 1-(4-{1-[(E)-4-Cyclohexyl-3-trifluoromethyl-benzyloxyimino]-ethyl}-2-ethyl-benzyl)-azetidine-3-carboxylic acid] | low hygroscopy | 0.61 | 94.8 | 92.7 | 11.5 | No change | 1.1 | good resistance to decomposition | 95.2 | Strong | 95.8 | Strong | Strong | 91.5 | Melted glass | 1.1 | No change | Discoloration [2, 5]: Strong; Discoloration [2, 6]: Strong |
| CCc1cc(/C(C)=N/OCc2ccc(C3CCCCC3)c(C(F)(F)F)c2)ccc1CN1CC(C(=O)O)C1 [Form A of tartrate salt, 1-(4-{1-[(E)-4-Cyclohexyl-3-trifluoromethyl-benzyloxyimino]-ethyl}-2-ethyl-benzyl)-azetidine-3-carboxylic acid] | slightly hygroscopic | 2.49 | 23.8 | 37.0 | 8.8 | Changed | 0.8 | good resistance to decomposition | 70.9 | Strong | 93.2 | Medium | Strong | 18.0 | Melted glass | 0.8 | No change | temperature of the phase transition (DSC) ([2]; Solid state, 1 week 80° C., tight container, Bulk (XRPD, DSC), measured where XRPD changed): 136.3 °C; resistance to decomposition under conditions of high humidity and when mixed with representative pharmaceutical compositions ([3]; summary of Table 5, compared with the hydrochloride form): superior resistance to decomposition |
